Source: patent US8552002B2 (Novartis AG, priority 2004, dated 2013)

Legend:
Type in all cases: biochemical
FGFR3 (K650E) = biological target: T1, FGFR3 (K650E) (Homo sapiens, UniProt P22607, K650E); experiment: Recombinant GST-FGFR-3-K650E tyrosine kinase assay (33P into poly(Glu,Tyr)); settings: 10 μM; Examples 1 to 169; read-out: FGFR3 (K650E) inhibition at 10 μM
T1 construct: amino acids 411-806 of the cytoplasmic domain of human FGFR-3, N-terminally fused to GST; made in house; host or cells: Sf9 insect cells (baculovirus)

Tek = biological target: T2, Tek (Homo sapiens, UniProt Q02763); experiment: Recombinant GST-Tek (Tie-2) tyrosine kinase assay (33P into poly(Glu,Tyr)); settings: Examples 1 to 169
T2 construct: amino acids 773-1124 of the cytoplasmic kinase domain of human Tek, N-terminally fused to GST; made in house; host or cells: Sf9 insect cells (baculovirus)
Description: (Tie-2/Tek): The baculovirus donor vector pFbacG01 was used to generate a recombinant baculovirus that expressed the amino acid region amino acids 773-1124 of the cytoplasmic kinase domain of human Tek, N-terminally fused to GST (Provided by Dr. Marmé, Institute of Molecular Medicine, Freiburg, Germany based on a Research Collaboration). Tek was recloned into the pFbacG01 transfer vector by EcoRI excision and ligation into EcoRI digested pFbacG01 (FBG-Tie2/Tek).
Production of virus: Transfer vectors containing the kinase domains were transfected into the DH10Bac cell line (GIBCO) and plated on selective agar plates. Colonies without insertion of the fusion sequence into the viral genome (carried by the bacteria) are blue. Single white colonies were picked and viral DNA (bacmid) isolated from the bacteria by standard plasmid purification procedures. Sf9 cells or Sf21 cells were then transfected in 25 cm^2 flasks with the viral DNA using Cellfectin reagent.
Determination of small scale protein expression in Sf9 cells: Virus containing media was collected from the transfected cell culture and used for infection to increase its titer. Virus containing media obtained after two rounds of infection was used for large-scale protein expression. For large-scale protein expression 100 cm^2 round tissue culture plates were seeded with 5×10^7 cells/plate and infected with 1 mL of virus-containing media (approx. 5 MOIs). After 3 days the cells were scraped off the plate and centrifuged at 500 rpm for 5 min. Cell pellets from 10-20, 100 cm^2 plates, were resuspended in 50 mL of ice-cold lysis buffer (25 mMTris-HCl, pH7.5, 2 mMEDTA, 1% NP-40, 1 mM DTT, 1 mMP MSF). The cells were stirred on ice for 15 min and then centrifuged at 5000 rpms for 20 min.
Purification of GST-tagged proteins: The centrifuged cell lysate was loaded onto a 2 mL glutathione-sepharose column and washed three times with 10 mL of 25 mM Tris-HCl, pH 7.5, 2 mM EDTA, 1 mM DTT, 200 mM NaCl. The GST-tagged proteins were then eluted by 10 applications (1 mL each) of 25 mM Tris-HCl, pH 7.5, 10 mM reduced-glutathione, 100 mM NaCl, 1 mM DTT, 10% Glycerol and stored at −70° C.
Measure of enzyme activity: Tyrosine protein kinase assays with either purified GST-Ret, GST-Tek or GST-FGFR-3-K650E were carried out in a final volume of 30 μL with final concentrations of the following components: Ret included 15 ng of GST-Ret, 20 mM Tris-HCl, pH 7.5, 1 mM MnCl2, 10 mM MgCl2, 1 mM DTT, 3 μg/mL poly(Glu,Tyr) 4:1, 1% DMSO and 2.0 μM ATP (γ-[^33P]-ATP 0.1 μCi). Tek included 150 ng of GST-Tek, 20 mM Tris-HCl, pH 7.5, 3 mM MnCl2, 3 mM MgCl2, 1 mM DTT, 0.01 mM Na3VO4, 250 μg/mL PEG 20'000, 10 μg/mL poly(Glu,Tyr) 4:1, 1% DMSO and 4.0 μM ATP (γ-[^33P]-ATP 0.1 μCi). FGFR-3-K650E included 10 ng of GST-FGFR-3-K650E, 20 mM Tris-HCl, pH 7.5, 3 mM MnCl2, 3 mM MgCl2, 1 mM DTT, […], 10 μg/mL poly(Glu,Tyr) 4:1, 1% DMSO and 4.0 μM ATP (γ-[^33P]-ATP 0.1 μCi).The activity was assayed in the presence or absence of inhibitors, by measuring the incorporation of ^33P from [γ^33P] ATP into poly(Glu,Tyr) 4:1. The assay was carried out in 96-well plates at ambient temperature for 30 min under conditions described below and terminated by the addition of 50 μL of 125 mM EDTA. Subsequently, 60 μL of the reaction mixture were transferred onto Immobilon-PVDF membrane (Millipore) previously soaked for 5 min with methanol, rinsed with water, then soaked for 5 min with 0.5% H3PO4 and mounted on vacuum manifold with disconnected vacuum source. After spotting all samples, vacuum was connected and each well rinsed with 200 μL 0.5% H3PO4. Membranes were removed and washed 4× on a shaker with 1.0% H3PO4, once with ethanol. Membranes were counted after drying at ambient temperature, mounting in Packard TopCount 96-well frame, and addition of 10 μL/well of Microscint™ (Packard). […]

KDR = biological target: T3, KDR (Homo sapiens, UniProt P35968); experiment: Inhibitory activity against KDR (VEGF-R2), in vitro data of Examples 170 and 207; settings: 10 μM; Examples 1 to 169; read-out: KDR inhibition at 10 μM
T3 construct: expressed in transfected cells; host or cells: CHO cells
Experimental: (Controls comprise medium without test compounds). After two hours of incubation at 37° C., recombinant VEGF is added; the final VEGF concentration is 20 ng/ml. After a further five minutes incubation at 37° C., the cells are washed twice with ice-cold PBS (phosphate-buffered saline) and immediately lysed in 100 μl lysis buffer per well. The lysates are then centrifuged to remove the cell nuclei, and the protein concentrations of the supernatants are determined using a commercial protein assay (BIORAD). The lysates can then either be immediately used or, if necessary, stored at −20° C. […] The plates are then washed and the remaining free protein-binding sites are saturated with 3% TopBlock® (Juro, Cat. # TB232010) in phosphate buffered saline with Tween 20® (polyoxyethylen(20)sorbitane monolaurate, ICI/Uniquema) (PBST). The cell lysates (20 μg protein per well) are then incubated in these plates overnight at 4° C. together with an antiphosphotyrosine antibody coupled with alkaline phosphatase (PY20:AP from Zymed). […] The luminescence is measured in a Packard Top Count Microplate Scintillation Counter.

T3 sequence (P35968 20-1356): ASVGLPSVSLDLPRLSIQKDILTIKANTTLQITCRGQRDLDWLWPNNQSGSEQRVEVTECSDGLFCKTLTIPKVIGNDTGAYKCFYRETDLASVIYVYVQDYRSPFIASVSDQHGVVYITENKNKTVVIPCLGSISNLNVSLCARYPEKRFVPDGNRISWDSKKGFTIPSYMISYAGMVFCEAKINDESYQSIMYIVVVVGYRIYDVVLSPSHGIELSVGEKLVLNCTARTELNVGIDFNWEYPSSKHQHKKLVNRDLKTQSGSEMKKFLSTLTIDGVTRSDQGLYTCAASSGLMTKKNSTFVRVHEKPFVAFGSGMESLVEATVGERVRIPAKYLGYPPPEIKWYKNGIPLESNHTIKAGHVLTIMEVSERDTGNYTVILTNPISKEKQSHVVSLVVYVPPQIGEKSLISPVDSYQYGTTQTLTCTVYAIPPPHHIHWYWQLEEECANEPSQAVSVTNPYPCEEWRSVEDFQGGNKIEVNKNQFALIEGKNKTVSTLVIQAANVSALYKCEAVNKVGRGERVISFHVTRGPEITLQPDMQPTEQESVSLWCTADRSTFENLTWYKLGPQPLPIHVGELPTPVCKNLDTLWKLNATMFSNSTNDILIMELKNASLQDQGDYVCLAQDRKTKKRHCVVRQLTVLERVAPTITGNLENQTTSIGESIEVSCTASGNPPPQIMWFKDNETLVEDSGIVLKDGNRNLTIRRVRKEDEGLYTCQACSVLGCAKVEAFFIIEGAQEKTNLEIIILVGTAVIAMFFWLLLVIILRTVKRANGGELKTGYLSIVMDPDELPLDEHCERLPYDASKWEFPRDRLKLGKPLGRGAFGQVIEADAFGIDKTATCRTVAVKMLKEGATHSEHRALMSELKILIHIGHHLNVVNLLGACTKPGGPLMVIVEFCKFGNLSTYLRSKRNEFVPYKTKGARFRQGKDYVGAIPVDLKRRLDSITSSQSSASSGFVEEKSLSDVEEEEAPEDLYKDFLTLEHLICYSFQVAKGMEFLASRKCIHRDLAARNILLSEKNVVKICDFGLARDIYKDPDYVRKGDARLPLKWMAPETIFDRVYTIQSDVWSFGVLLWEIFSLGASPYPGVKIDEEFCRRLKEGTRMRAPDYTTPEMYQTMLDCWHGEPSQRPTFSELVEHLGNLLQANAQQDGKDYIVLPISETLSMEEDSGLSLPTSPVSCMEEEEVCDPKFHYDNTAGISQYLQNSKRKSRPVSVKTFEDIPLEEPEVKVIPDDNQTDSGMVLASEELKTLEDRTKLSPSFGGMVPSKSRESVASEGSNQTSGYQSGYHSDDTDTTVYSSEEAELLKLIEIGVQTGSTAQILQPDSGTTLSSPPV
T1 sequence (P22607 411-806 K650E): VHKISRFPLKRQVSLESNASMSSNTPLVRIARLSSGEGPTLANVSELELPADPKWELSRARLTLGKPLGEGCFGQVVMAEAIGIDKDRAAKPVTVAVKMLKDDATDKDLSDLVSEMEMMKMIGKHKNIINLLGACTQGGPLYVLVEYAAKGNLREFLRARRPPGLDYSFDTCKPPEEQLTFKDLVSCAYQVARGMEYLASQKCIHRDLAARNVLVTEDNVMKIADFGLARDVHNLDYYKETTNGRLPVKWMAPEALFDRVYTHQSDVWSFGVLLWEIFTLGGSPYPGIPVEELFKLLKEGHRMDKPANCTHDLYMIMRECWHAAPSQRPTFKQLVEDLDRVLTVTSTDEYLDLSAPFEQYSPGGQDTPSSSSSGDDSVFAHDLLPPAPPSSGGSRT
T2 sequence (Q02763 773-1124): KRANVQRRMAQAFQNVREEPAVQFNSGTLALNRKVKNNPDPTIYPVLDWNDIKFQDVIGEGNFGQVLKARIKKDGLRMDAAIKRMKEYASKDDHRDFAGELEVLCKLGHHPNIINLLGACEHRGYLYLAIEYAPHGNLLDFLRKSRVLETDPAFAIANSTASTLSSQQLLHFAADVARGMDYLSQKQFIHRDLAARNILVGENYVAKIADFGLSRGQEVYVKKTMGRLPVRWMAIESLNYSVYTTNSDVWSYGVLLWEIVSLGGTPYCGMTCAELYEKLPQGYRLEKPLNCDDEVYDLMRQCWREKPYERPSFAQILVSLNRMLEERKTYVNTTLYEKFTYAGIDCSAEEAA

Row | inhibition at 10 µM (FGFR3 (K650E)) [%] | inhibition at 10 µM (Tek) [%] | inhibition at 10 µM (KDR) [%] | SMILES
1 | 27 to 100 | 12 to 100 | 67 to 100 | O=C(Nc1cc(Nc2ccc(OCCCN3CCOCC3)cc2)ncn1)Nc1ccccc1Br [Example 99, 1-(2-Bromo-phenyl)-3-{6-[4-(3-morpholin-4-yl-propoxy)-phenylamino]-pyrimidin-4-yl}-urea]
2 | 27 to 100 | 12 to 100 | 67 to 100 | COc1ccc(NC(=O)Nc2cc(Nc3ccc(N4CCN(C)CC4)cc3)ncn2)cc1Cl [Example 24, 1-(3-Chloro-4-methoxy-phenyl)-3-{6-[4-(4-methyl-piperazin-1-yl)-phenyl-amino]-pyrimidin-4-yl}-urea]
3 | 27 to 100 | 12 to 100 | 67 to 100 | O=C(Nc1cc(Nc2ccc(OCCN3CCOCC3)cc2)ncn1)Nc1ccccc1Cl [Example 142, 1-(2-Chloro-phenyl)-3-{6-[4-(2-morpholin-4-yl-ethoxy)-phenylamino]-pyrimidin-4-yl}-urea]
4 | 27 to 100 | 12 to 100 | 67 to 100 | CN(C(=O)Nc1c(Cl)cccc1Cl)c1cc(Nc2ccc(F)cc2F)ncn1 [Example 118, 3-(2,6-Dichloro-phenyl)-1-[6-(2,4-difluoro-phenylamino)-pyrimidin-4-yl]-1-methyl-urea]
5 | 27 to 100 | 12 to 100 | 67 to 100 | COc1cc(NC(=O)Nc2cc(Nc3ccc(OCCN4CCOCC4)cc3)ncn2)c(Cl)c(OC)c1 [Example 44, 1-(2-Chloro-3,5-dimethoxy-phenyl)-3-{6-[4-(2-morpholin-4-yl-ethoxy)-phenylamino]-pyrimidin-4-yl}-urea]
6 | 27 to 100 | 12 to 100 | 67 to 100 | COc1ccc(Cl)c(NC(=O)Nc2cc(Nc3cccc(OCCN4CCOCC4)c3)ncn2)c1Cl [Example 37, 1-(2,6-Dichloro-3-methoxy-phenyl)-3-{6-[3-(2-morpholin-4-yl-ethoxy)-phenylamino]-pyrimidin-4-yl}-urea]
7 | 27 to 100 | 12 to 100 | 67 to 100 | COc1ccc(CN(C(=O)Nc2c(Cl)ccc(OC)c2Cl)c2cc(Nc3ccc(N4CCN(C)CC4)cc3)ncn2)cn1 [Example 63, 3-(2,6-Dichloro-3-methoxy-phenyl)-1-(6-methoxy-pyridin-3-ylmethyl)-1-{6-[4-(4-methyl-piperazin-1-yl)-phenylamino]-pyrimidin-4-yl}-urea]
8 | 27 to 100 | 12 to 100 | 67 to 100 | CN1CCN(c2cccc(Nc3cc(NC(=O)Nc4cc(C(F)(F)F)cc(C(F)(F)F)c4)ncn3)c2)CC1 [Example 21, 1-(3,5-Bis-trifluoromethyl-phenyl)-3-{6-[3-(4-methyl-piperazin-1-yl)-phenylamino]-pyrimidin-4-yl}-urea]
9 | 27 to 100 | 12 to 100 | 67 to 100 | COc1cc(C)c(NC(=O)Nc2cc(Nc3cccc(N4CCN(C)CC4)c3)ncn2)cc1OC [Example 35]
10 | 27 to 100 | 12 to 100 | 67 to 100 | COc1cc(OC)c(Cl)c(NC(=O)N(C)c2cc(Nc3ccc(C)nc3C)ncn2)c1Cl [Example 153, 3-(2,6-Dichloro-3,5-dimethoxy-phenyl)-1-[6-(2,6-dimethyl-pyridin-3-ylamino)-pyrimidin-4-yl]-1-methyl-urea]
11 | 27 to 100 | 12 to 100 | 67 to 100 | O=C(Nc1cc(Nc2ccc(N3CCOCC3)cc2)ncn1)Nc1c(Cl)cccc1Cl [Example 108, 1-(2,6-Dichloro-Phenyl)-3-[6-(4-morpholin-4-yl-phenylamino)-pyrimidin-4-yl]-urea]
12 | 27 to 100 | 12 to 100 | 67 to 100 | CN(C(=O)Nc1c(Cl)cccc1Cl)c1cc(Nc2ccc(C(C)(C)O)cc2)ncn1 [Example 111, 3-(2,6-Dichloro-Phenyl)-1-{6-[4-(1-hydroxy-1-methyl-ethyl)-phenylamino]-pyrimidin-4-yl}-1-methyl-urea]
13 | 27 to 100 | 12 to 100 | 67 to 100 | COc1ccc(C)c(NC(=O)Nc2cc(Nc3ccc(N4CCN(C)CC4)cc3)ncn2)c1 [Example 26, 1-(5-Methoxy-2-methyl-phenyl)-3-{6-[4-(4-methyl-piperazin-1-yl)-phenyl-amino]-pyrimidin-4-yl}-urea]
14 | 27 to 100 | 12 to 100 | 67 to 100 | COc1ccc(OC)c(NC(=O)Nc2cc(Nc3ccc(N4CCN(C)CC4)cc3)ncn2)c1 [Example 12, 1-(2,5-Dimethoxy-phenyl)-3-{6-[4-(4-methyl-piperazin-1-yl)-phenyl-amino]-pyrimidin-4-yl}-urea]
15 | 27 to 100 | 12 to 100 | 67 to 100 | COc1cc(NC(=O)Nc2cc(Nc3ccc(N4CCN(C)CC4)cc3)ncn2)cc(OC)c1OC [Example 14, 1-{6-[4-(4-Methyl-piperazin-1-yl)-phenylamino]-pyrimidin-4-yl}-3-(3,4,5-trimethoxy-phenyl)-urea]
16 | 27 to 100 | 12 to 100 | 67 to 100 | COc1cc(NC(=O)Nc2cc(Nc3cccc(N4CCN(C)CC4)c3)ncn2)cc(OC)c1OC [Example 15, 1-{6-[3-(4-Methyl-piperazin-1-yl)-phenylamino]-pyrimidin-4-yl}-3-(3,4,5-trimethoxy-phenyl)-urea]
17 | 27 to 100 | 12 to 100 | 67 to 100 | O=C(Nc1cc(Nc2ccc(OCCCN3CCOCC3)cc2)ncn1)Nc1c(Cl)cccc1Cl [Example 98, 1-(2,6-Dichloro-phenyl)-3-{6-[4-(3-morpholin-4-yl-propoxy)-phenylamino]-pyrimidin-4-yl}-urea]
